*1 amine or outer side, *2 acyl side, *3 side chain or, on linkers, in order; H or OH if unused. Where a SMILES comes first, the peptide text is derived from it. Side-chain parts run from the residue outwards. [ ]: non-standard residue; d: D form. The star is where a group is joined. Ala(piperidin-4-yl) = O=C([C@H](CC1CCN([*:3])CC1)N[*:1])[*:2]; X2 = O=C([C@@H]1C[C@@H](Oc2ccncc2)CN1[*:1])[*:2]; Ala(piperazin-1-yl) = N[C@@H](CN1CCNCC1)C(=O)O; X5 = CN([C@@H](CC1CCNCC1)C(=O)[*:2])[*:1]; Phe(4-Cl) = N[C@@H](Cc1ccc(Cl)cc1)C(=O)O; Morpholine(3S-CO) = O=C(O)[C@@H]1COCCN1; Ethylenediamine = C(CN[*:2])N[*:1]; d(hPhe) = N[C@H](CCc1ccccc1)C(=O)O; Hyp = O=C(O)[C@@H]1C[C@@H](O)CN1; hPhe = N[C@@H](CCc1ccccc1)C(=O)O; 3Pal = N[C@@H](Cc1cccnc1)C(=O)O; Cyclohexylmethyl = C1CCC(C*)CC1; Tic = O=C(O)[C@@H]1Cc2ccccc2CN1; Phg = N[C@H](C(=O)O)c1ccccc1; CO = O=C([*:1])[*:2]; Bn = c1ccc(C*)cc1
Columns and labels:
SST2 = SST2 (Homo sapiens, UniProt P30874); assay: Hit Hunter cAMP XS+ assay, SST2 activation via Gi (reduction of forskolin-stimulated cAMP); assay type: cell-based; conditions: for Emax: read-out: SST2 (EMax); for EC50: reduction of forskolin-stimulated cAMP, 4-parameter logistic fit, read-out: SST2 pEC50 (converted)
Protocol: (§1) A Hit Hunter® cAMP XS+ assay was used to monitor activation of the SST2 and SST5 via the Gi G protein. Cells were pre-stimulated with forskolin to elicit a cAMP response and the potency and efficacy of somatostatin agonists to reduce cAMP was measured. Briefly cells (10,000 cells/well) were incubated (37° C.; 30 min) with compound ([…]) in media (2:1 HBSS/11 mM Hepes: cAMP XS+Ab reagent) in the presence of EC80 forskolin ([…] and 15 μM SST5). Signal was detected through incubation with 20 μL cAMP XS+ED/CL lysis cocktail ([…]; RT) followed by incubation with […] cAMP XS+EA reagent (180 min; RT). Microplates were read with a PerkinElmer Envision™ instrument for chemiluminescent signal detection.

SST5 = SST5 (Homo sapiens, UniProt P35346); assay: Hit Hunter cAMP XS+ assay, SST5 activation via Gi (reduction of forskolin-stimulated cAMP); assay type: cell-based; conditions: for Emax: read-out: SST5 (EMax); for EC50: reduction of forskolin-stimulated cAMP, 4-parameter logistic fit, read-out: SST5 pEC50 (converted); for SST5/2 Selectivity: selectivity for SST5 over SST2
Protocol: as §1

Sequence of SST2 (P30874 whole entry): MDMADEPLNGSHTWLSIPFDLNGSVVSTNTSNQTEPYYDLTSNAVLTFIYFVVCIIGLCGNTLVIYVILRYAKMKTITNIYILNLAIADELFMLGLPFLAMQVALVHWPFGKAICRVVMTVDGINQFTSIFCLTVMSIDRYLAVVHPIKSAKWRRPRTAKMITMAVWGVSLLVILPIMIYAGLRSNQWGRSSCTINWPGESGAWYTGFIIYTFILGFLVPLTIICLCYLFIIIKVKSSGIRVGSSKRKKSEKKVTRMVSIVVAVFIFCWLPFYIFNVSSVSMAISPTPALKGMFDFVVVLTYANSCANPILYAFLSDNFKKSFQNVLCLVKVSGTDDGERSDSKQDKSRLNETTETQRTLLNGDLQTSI
Sequence of SST5 (P35346 whole entry): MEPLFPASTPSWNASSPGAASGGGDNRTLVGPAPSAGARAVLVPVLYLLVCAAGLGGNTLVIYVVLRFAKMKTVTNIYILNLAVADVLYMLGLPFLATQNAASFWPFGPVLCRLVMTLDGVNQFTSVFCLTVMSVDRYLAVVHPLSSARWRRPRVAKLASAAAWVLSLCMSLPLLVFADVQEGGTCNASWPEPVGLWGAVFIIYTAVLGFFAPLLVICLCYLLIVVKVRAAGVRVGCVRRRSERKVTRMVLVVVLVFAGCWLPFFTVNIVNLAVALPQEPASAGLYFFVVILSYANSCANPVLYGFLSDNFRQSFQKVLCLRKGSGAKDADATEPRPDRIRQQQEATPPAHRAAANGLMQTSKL

Emax (SST2) [%]	EC50 (SST2) [nM]	Emax (SST5) [%]	EC50 (SST5) [nM]	SST5/2 Selectivity (SST5)	Structure (SMILES)
100	200	102	0.126	1351.8	NCCNC(=O)O[C@@H]1C[C@H]2C(=O)N[C@H](CCc3ccccc3)C(=O)N[C@H](Cc3c[nH]c4ccccc34)C(=O)N[C@@H](CN3CCNCC3)C(=O)N[C@@H](Cc3ccc(OCc4ccccc4)cc3)C(=O)N3Cc4ccccc4C[C@H]3C(=O)N2C1 [Example 25] (cyclo([Hyp]([CO-Ethylenediamine])[d(hPhe)][dW][Ala(piperazin-1-yl)]Y(Bn)[Tic]))
66.6	501	99.1	0.126	4067.3	NCCNC(=O)O[C@@H]1C[C@H]2C(=O)N[C@@H](CCc3ccccc3)C(=O)N[C@H](Cc3c[nH]c4ccccc34)C(=O)N[C@@H](CN3CCNCC3)C(=O)N[C@@H](Cc3ccc(OCc4ccccc4)cc3)C(=O)N3Cc4ccccc4C[C@H]3C(=O)N2C1 [Example 26] (cyclo([Hyp]([CO-Ethylenediamine])[hPhe][dW][Ala(piperazin-1-yl)]Y(Bn)[Tic]))
99.7	200	88.7	0.0631	3441.5	O=C1N[C@@H](Cc2ccc(OCc3ccccc3)cc2)C(=O)N2Cc3ccccc3C[C@H]2C(=O)N2CCOC[C@H]2C(=O)N[C@@H](CCc2ccccc2)C(=O)N[C@H](Cc2c[nH]c3ccccc23)C(=O)N[C@H]1CN1CCNCC1 [Example 31] (cyclo([Tic][Morpholine(3S-CO)][hPhe][dW][Ala(piperazin-1-yl)]Y(Bn)))
98.8	100	99.9	1.26	66.8	CN1C(=O)[C@@H](Cc2c[nH]c3ccccc23)NC(=O)[C@@H](CCc2ccccc2)NC(=O)[C@@H]2COCCN2C(=O)[C@@H]2Cc3ccccc3CN2C(=O)[C@H](Cc2ccc(OCc3ccccc3)cc2)NC(=O)[C@@H]1CC1CCNCC1 [Example 32] (cyclo([Tic][Morpholine(3S-CO)][d(hPhe)][dW][X5]Y(Bn)))
27.8	> 10000	107	1	10046.0	NCCNC(=O)O[C@@H]1C[C@H]2C(=O)N[C@H](CCc3ccccc3)C(=O)N[C@@H](Cc3c[nH]c4ccccc34)C(=O)N[C@@H](CN3CCNCC3)C(=O)N[C@@H](Cc3ccc(OCc4ccccc4)cc3)C(=O)N3Cc4ccccc4C[C@H]3C(=O)N2C1 [Example 35] (cyclo([Hyp]([CO-Ethylenediamine])[d(hPhe)]W[Ala(piperazin-1-yl)]Y(Bn)[Tic]))
63.4	501	102	1.26	384.3	NCCNC(=O)O[C@@H]1C[C@H]2C(=O)N[C@@H](CCc3ccccc3)C(=O)N[C@@H](Cc3c[nH]c4ccccc34)C(=O)N[C@@H](CN3CCNCC3)C(=O)N[C@@H](Cc3ccc(OCc4ccccc4)cc3)C(=O)N3Cc4ccccc4C[C@H]3C(=O)N2C1 [Example 36] (cyclo([Hyp]([CO-Ethylenediamine])[hPhe]W[Ala(piperazin-1-yl)]Y(Bn)[Tic]))

More lines, now with the values behind:

Structure (SMILES)	Emax (SST2) [%]	EC50 (SST2) [nM]	Emax (SST5) [%]	EC50 (SST5) [nM]	SST5/2 Selectivity (SST5)
NCCNC(=O)O[C@@H]1C[C@H]2C(=O)N[C@@H](CCc3ccccc3)C(=O)N[C@@H](Cc3c[nH]c4ccccc34)C(=O)N[C@@H](CC3CCNCC3)C(=O)N[C@@H](Cc3ccc(OCc4ccccc4)cc3)C(=O)N3Cc4ccccc4C[C@H]3C(=O)N2C1 [Example 19] (cyclo([Hyp]([CO-Ethylenediamine])[hPhe]W[Ala(piperidin-4-yl)]Y(Bn)[Tic]))	75.5	100	99.8	20	5.5
O=C1N[C@@H](Cc2cccnc2)C(=O)N2C[C@H](Oc3ccncc3)C[C@H]2C(=O)N[C@H](CCc2ccccc2)C(=O)N[C@H](Cc2c[nH]c3ccccc23)C(=O)N[C@@H](CC2CCNCC2)C(=O)N[C@H]1Cc1ccc(OCc2ccccc2)cc1 [Example 20] (cyclo([3Pal][X2][d(hPhe)][dW][Ala(piperidin-4-yl)]Y(Bn)))	98	3160	99.6	6.31	418.4
O=C1N[C@@H](Cc2cccnc2)C(=O)N2C[C@H](Oc3ccncc3)C[C@H]2C(=O)N[C@@H](CCc2ccccc2)C(=O)N[C@H](Cc2c[nH]c3ccccc23)C(=O)N[C@@H](CC2CCNCC2)C(=O)N[C@H]1Cc1ccc(OCc2ccccc2)cc1 [Example 22] (cyclo([3Pal][X2][hPhe][dW][Ala(piperidin-4-yl)]Y(Bn)))	100	79.4	102	0.501	142.6
O=C1N[C@@H](Cc2ccc(OCc3ccccc3)cc2)C(=O)N[C@@H](Cc2cccnc2)C(=O)N2C[C@H](Oc3ccncc3)C[C@H]2C(=O)N[C@@H](CCc2ccccc2)C(=O)N[C@@H](Cc2c[nH]c3ccccc23)C(=O)N[C@H]1CC1CCNCC1 [Example 23] (cyclo([3Pal][X2][hPhe]W[Ala(piperidin-4-yl)]Y(Bn)))	96.6	631	101	3.98	148.7
O=C1N[C@@H](Cc2ccc(OCc3ccccc3)cc2)C(=O)N[C@@H](Cc2cccnc2)C(=O)N2C[C@H](Oc3ccncc3)C[C@H]2C(=O)N[C@H](CCc2ccccc2)C(=O)N[C@@H](Cc2c[nH]c3ccccc23)C(=O)N[C@H]1CC1CCNCC1 [Example 24] (cyclo([3Pal][X2][d(hPhe)]W[Ala(piperidin-4-yl)]Y(Bn)))	46.8	> 10000	102	100	110.6
NCCNC(=O)O[C@@H]1C[C@H]2C(=O)N[C@@H](c3ccccc3)C(=O)N[C@H](Cc3c[nH]c4ccccc34)C(=O)N[C@@H](CN3CCNCC3)C(=O)N[C@@H](Cc3ccc(OCC4CCCCC4)cc3)C(=O)N[C@@H](Cc3ccccc3)C(=O)N2C1 [Example 27] (cyclo(F[Hyp]([CO-Ethylenediamine])[Phg][dW][Ala(piperazin-1-yl)]Y(Cyclohexylmethyl)))	90.7	398	99.4	2.51	159.6
NCCNC(=O)O[C@@H]1C[C@H]2C(=O)N[C@@H](CCc3ccccc3)C(=O)N[C@H](Cc3c[nH]c4ccccc34)C(=O)N[C@@H](CC3CCNCC3)C(=O)N[C@@H](Cc3ccc(OCc4ccccc4)cc3)C(=O)N[C@@H](Cc3ccccc3)C(=O)N2C1 [Example 28] (cyclo(F[Hyp]([CO-Ethylenediamine])[hPhe][dW][Ala(piperidin-4-yl)]Y(Bn)))	99.6	7.94	100	0.0794	101.0
NCCNC(=O)O[C@@H]1C[C@H]2C(=O)N[C@@H](CCc3ccccc3)C(=O)N[C@@H](Cc3c[nH]c4ccccc34)C(=O)N[C@@H](CC3CCNCC3)C(=O)N[C@@H](Cc3ccc(OCc4ccccc4)cc3)C(=O)N[C@@H](Cc3ccccc3)C(=O)N2C1 [Example 29] (cyclo(F[Hyp]([CO-Ethylenediamine])[hPhe]W[Ala(piperidin-4-yl)]Y(Bn)))	89.6	794	100	1	663.6
NCCNC(=O)O[C@@H]1C[C@H]2C(=O)N[C@H](CCc3ccccc3)C(=O)N[C@H](Cc3c[nH]c4ccccc34)C(=O)N[C@@H](CN3CCNCC3)C(=O)N[C@@H](Cc3ccc(OCc4ccccc4)cc3)C(=O)N[C@@H](Cc3ccc(Cl)cc3)C(=O)N2C1 [Example 30] (cyclo([Hyp]([CO-Ethylenediamine])[d(hPhe)][dW][Ala(piperazin-1-yl)]Y(Bn)[Phe(4-Cl)]))	100	251	101	1	214.2
NCCNC(=O)O[C@@H]1C[C@H]2C(=O)N[C@H](CCc3ccccc3)C(=O)N[C@@H](Cc3c[nH]c4ccccc34)C(=O)N[C@@H](CN3CCNCC3)C(=O)N[C@@H](Cc3ccc(OCc4ccccc4)cc3)C(=O)N[C@@H](Cc3cccnc3)C(=O)N2C1 [Example 33] (cyclo([3Pal][Hyp]([CO-Ethylenediamine])[d(hPhe)]W[Ala(piperazin-1-yl)]Y(Bn)))	13.4	> 10000	107	39.8	279.1
NCCNC(=O)O[C@@H]1C[C@H]2C(=O)N[C@@H](CCc3ccccc3)C(=O)N[C@@H](Cc3c[nH]c4ccccc34)C(=O)N[C@@H](CN3CCNCC3)C(=O)N[C@@H](Cc3ccc(OCc4ccccc4)cc3)C(=O)N[C@@H](Cc3cccnc3)C(=O)N2C1 [Example 34] (cyclo([3Pal][Hyp]([CO-Ethylenediamine])[hPhe]W[Ala(piperazin-1-yl)]Y(Bn)))	49.2	3980	102	1	3271.8
NCCNC(=O)O[C@@H]1C[C@H]2C(=O)N[C@@H](CCc3ccccc3)C(=O)N[C@H](Cc3c[nH]c4ccccc34)C(=O)N[C@@H](CN3CCNCC3)C(=O)N[C@@H](Cc3ccc(OCc4ccccc4)cc3)C(=O)N3CCC[C@H]3C(=O)N2C1 [Example 37] (cyclo([Hyp]([CO-Ethylenediamine])[hPhe][dW][Ala(piperazin-1-yl)]Y(Bn)P))	75.8	6310	108	2	2927.5

Source: patent publication US11987648B2, “Cyclohexapeptides as selective somatostatin SST5 receptor agonists” (Heptares Therapeutics Limited, priority 2018, dated 2024)
